According to patent US11524944B2, “2-phenylpyrimidine-4-carboxamides as AHR inhibitors” (Bayer Aktiengesellschaft, priority 2017, dated 2022):

Experiments:
[1] = target: T1, Human AhR (Homo sapiens, UniProt P35869); assay: Transactivation assay in human cell line (in vitro assay 1): antagonism; assay type: cell-based; conditions: U87 glioblastoma cells, AHR inducible firefly luciferase reporter (DRE), 150 μM kynurenic acid, 20 hours
T1 construct: host or cells: U87 glioblastoma cells, stably transfected with a DRE firefly luciferase reporter and a constitutive renilla reporter
T1 sequence (P35869 11-848): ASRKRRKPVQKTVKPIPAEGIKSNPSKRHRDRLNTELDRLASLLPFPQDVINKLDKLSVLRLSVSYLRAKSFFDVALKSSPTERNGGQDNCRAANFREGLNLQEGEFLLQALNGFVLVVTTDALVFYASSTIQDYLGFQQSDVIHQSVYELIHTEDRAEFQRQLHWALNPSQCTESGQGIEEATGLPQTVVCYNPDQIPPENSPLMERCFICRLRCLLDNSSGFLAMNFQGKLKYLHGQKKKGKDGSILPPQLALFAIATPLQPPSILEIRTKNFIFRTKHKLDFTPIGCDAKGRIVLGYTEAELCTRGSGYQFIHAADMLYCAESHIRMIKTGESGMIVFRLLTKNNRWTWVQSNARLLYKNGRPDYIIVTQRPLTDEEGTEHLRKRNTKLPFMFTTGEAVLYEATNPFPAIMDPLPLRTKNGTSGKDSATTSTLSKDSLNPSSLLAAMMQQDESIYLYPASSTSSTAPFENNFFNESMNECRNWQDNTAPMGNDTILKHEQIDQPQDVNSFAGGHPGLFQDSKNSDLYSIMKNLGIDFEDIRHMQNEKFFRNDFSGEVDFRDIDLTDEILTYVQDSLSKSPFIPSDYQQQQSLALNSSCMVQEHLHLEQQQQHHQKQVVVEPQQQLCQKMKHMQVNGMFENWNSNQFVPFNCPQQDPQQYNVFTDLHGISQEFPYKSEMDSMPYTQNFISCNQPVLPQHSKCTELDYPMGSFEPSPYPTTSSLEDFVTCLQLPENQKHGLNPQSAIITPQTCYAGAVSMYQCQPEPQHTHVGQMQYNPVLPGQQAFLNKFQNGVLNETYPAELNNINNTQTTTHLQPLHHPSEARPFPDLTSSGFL
Protocol: (§1) Examples were tested in selected biological assays one or more times. When tested more than once, data are reported as either average values or as median values, wherein • the average value, also referred to as the arithmetic mean value, represents the sum of the values obtained divided by the number of times tested, and • the median value represents the middle number of the group of values when ranked in ascending or descending order. If the number of values in the data set is odd, the median is the middle value. If the number of values in the data set is even, the median is the arithmetic mean of the two middle values.
Transactivation Assay in Human Cell Line (In Vitro Assay 1)
(§2) Transactivation assay was carried out in U87 glioblastoma cells (ATCC) endogenously expressing AHR. In addition the cells were stably transfected with an AHR inducible firefly luciferase reporter gene construct that carried AHR-binding sites (DRE) in its promoter and a renilla reporter gene construct with constitutively active promoter. Kynurenic acid is an endogenous AHR activating ligand and was used to prestimulate test cells prior to testing the antagonistic properties of compounds.
In Vitro Assay 1: Antagonism in Human Cell Line
Firefly luciferase and Renilla activity was determined by the DualGlo Luciferase Assay System (Promega, #2920). Renilla activity was used to assess toxic effects of compounds.

[2] = target: T2, Mouse AhR (Mus musculus, UniProt P30561); assay: Transactivation assay in mouse cell line (in vitro assay 2): antagonism; assay type: cell-based; conditions: Hepa 1c1c7 cells, AHR inducible firefly luciferase reporter (DRE), 200 μM kynurenic acid, 20 hours
T2 sequence (P30561 1-848 P471L/N533S/M589L): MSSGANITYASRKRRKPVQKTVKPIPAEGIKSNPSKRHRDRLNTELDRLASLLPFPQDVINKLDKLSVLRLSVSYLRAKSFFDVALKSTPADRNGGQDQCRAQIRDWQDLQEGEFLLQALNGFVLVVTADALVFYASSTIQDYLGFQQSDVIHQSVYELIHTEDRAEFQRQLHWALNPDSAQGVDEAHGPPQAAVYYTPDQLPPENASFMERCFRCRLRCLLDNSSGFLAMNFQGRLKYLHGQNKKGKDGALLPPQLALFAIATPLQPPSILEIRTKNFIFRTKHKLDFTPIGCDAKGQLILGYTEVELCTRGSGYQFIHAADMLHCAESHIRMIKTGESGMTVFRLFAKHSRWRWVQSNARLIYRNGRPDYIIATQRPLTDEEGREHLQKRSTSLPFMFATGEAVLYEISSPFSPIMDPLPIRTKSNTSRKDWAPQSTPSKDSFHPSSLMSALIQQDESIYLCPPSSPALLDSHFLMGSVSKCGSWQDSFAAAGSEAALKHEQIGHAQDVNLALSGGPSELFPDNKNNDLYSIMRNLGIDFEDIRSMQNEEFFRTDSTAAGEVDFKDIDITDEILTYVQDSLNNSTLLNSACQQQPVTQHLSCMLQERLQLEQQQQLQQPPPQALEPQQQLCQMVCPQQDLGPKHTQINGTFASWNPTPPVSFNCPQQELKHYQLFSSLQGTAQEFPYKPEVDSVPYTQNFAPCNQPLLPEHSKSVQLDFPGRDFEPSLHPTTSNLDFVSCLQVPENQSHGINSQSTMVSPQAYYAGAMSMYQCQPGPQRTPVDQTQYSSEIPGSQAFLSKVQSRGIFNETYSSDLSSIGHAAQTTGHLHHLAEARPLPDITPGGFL
Protocol: as §1
Transactivation Assay in Mouse Cell Line (In Vitro Assay 2)
as §2, with “Hepa 1c1c7” for “U87 glioblastoma”, “(ATCC #CRL-2026)” for “(ATCC)”, “its” for “its promoter and a renilla reporter gene construct with constitutively active”
In Vitro Assay 2: Antagonism in Mouse Cell Line
Firefly luciferase activity was determined by the SteadyGlo Luciferase Assay System (Promega, #E2550).

| Compound | IC50 [1] | IC50 [2] |
| --- | --- | --- |
| C[C@@H](CO)NC(=O)c1cc(-c2ccc(OC(F)(F)F)cc2)nc(-c2ccc(F)cc2)n1 [Example 28, 2-(4-fluorophenyl)-N-[(2S)-1-hydroxypropan-2-yl]-6-[4-(trifluoromethoxy)phenyl]pyrimidine-4-carboxamide] | 0.22 µM | 0.108 µM |
| COc1ccc(-c2nc(C(=O)NCC(C)(C)O)cc(-c3ccc(OC(F)(F)F)cc3)n2)cc1 [Example 15, N-(2-hydroxy-2-methylpropyl)-2-(4-methoxyphenyl)-6-[4-(trifluoromethoxy)phenyl]pyrimidine-4-carboxamide] | 0.39 µM | > 20 µM |
| C[C@@H](CO)NC(=O)c1cc(-c2ccc(OC(F)(F)F)cc2)nc(-c2cccc(F)c2)n1 [Example 5, 2-(3-Fluorophenyl)-N-[(2S)-1-hydroxypropan-2-yl]-6-[4-(trifluoromethoxy)phenyl]pyrimidine-4-carboxamide] | 0.00127 µM | 0.00128 µM |
| CC(C)(O)CNC(=O)c1cc(-c2ccc(OC(F)(F)F)cc2)nc(-c2ccc(Cl)c(Cl)c2)n1 [Example 22, 2-(3,4-dichlorophenyl)-N-(2-hydroxy-2-methylpropyl)-6-[4-(trifluoromethoxy)phenyl]pyrimidine-4-carboxamide] | – | 0.278 µM |
| CC(C)(O)CNC(=O)c1cc(-c2ccc(OC(F)(F)F)cc2)nc(-c2cccc(C#N)c2)n1 [Example 20, 2-(3-cyanophenyl)-N-(2-hydroxy-2-methylpropyl)-6-[4-(trifluoromethoxy)phenyl]pyrimidine-4-carboxamide] | 0.0114 µM | 0.125 µM |
| C[C@@H](CO)NC(=O)c1cc(-c2ccc(Cl)cc2)nc(-c2ccc(Cl)cc2)n1 [Example 3, 2,6-Bis(4-chlorophenyl)-N-[(2S)-1-hydroxypropan-2-yl]pyrimidine-4-carboxamide] | 0.64 µM | 0.532 µM |
| C[C@@H](CO)NC(=O)c1cc(-c2cccc(F)c2)nc(-c2ccc(OC(F)(F)F)cc2)n1 [Example 11, 6-(3-Fluorophenyl)-N-[(2S)-1-hydroxypropan-2-yl]-2-[4-(trifluoromethoxy)phenyl]pyrimidine-4-carboxamide] | 0.0411 µM | 0.0115 µM |
| Cc1cccc(-c2nc(C(=O)NCC(C)(C)O)cc(-c3ccc(OC(F)(F)F)cc3)n2)c1 [Example 16, N-(2-hydroxy-2-methylpropyl)-2-(3-methylphenyl)-6-[4-(trifluoromethoxy)phenyl]pyrimidine-4-carboxamide] | – | 0.0129 µM |
| Cc1cc(-c2nc(C(=O)NCC(C)(C)O)cc(-c3ccc(OC(F)(F)F)cc3)n2)ccc1F [Example 17, 2-(4-fluoro-3-methylphenyl)-N-(2-hydroxy-2-methylpropyl)-6-[4-(trifluoromethoxy)phenyl]pyrimidine-4-carboxamide] | – | 0.637 µM |
| CC(C)(O)CNC(=O)c1cc(-c2ccc(OC(F)(F)F)cc2)nc(-c2cc(F)cc(F)c2)n1 [Example 24, 2-(3,5-difluorophenyl)-N-(2-hydroxy-2-methylpropyl)-6-[4-(trifluoromethoxy)phenyl]pyrimidine-4-carboxamide] | – | 0.0283 µM |
| C[C@@H](CO)NC(=O)c1cc(-c2ccc(OC(F)(F)F)cc2)nc(-c2cc(F)cc(F)c2)n1 [Example 39, 2-(3,5-difluorophenyl)-N-[(2S)-1-hydroxypropan-2-yl]-6-[4-(trifluoromethoxy)phenyl]pyrimidine-4-carboxamide] | – | 0.0123 µM |
| C[C@@H](CO)NC(=O)c1cc(-c2ccc(OC(F)(F)F)cc2)nc(-c2cccc(Cl)c2)n1 [Example 37, 2-(3-chlorophenyl)-N-[(2S)-1-hydroxypropan-2-yl]-6-[4-(trifluoromethoxy)phenyl]pyrimidine-4-carboxamide] | – | 0.00849 µM |

The next lines start with the values.

| IC50 [1] | IC50 [2] | Compound |
| --- | --- | --- |
| – | 0.0128 µM | O=C(NC(CO)C1CCC1)c1cc(-c2ccc(OC(F)(F)F)cc2)nc(-c2cccc(F)c2)n1 (centres unmarked) [Example 85, N-(1-cyclobutyl-2-hydroxyethyl)-2-(3-fluorophenyl)-6-[4-(trifluoromethoxy)phenyl]pyrimidine-4-carboxamide] |
| 1.1 µM | 1.1 µM | C[C@@H](CO)NC(=O)c1cc(-c2ccc(OC(F)(F)F)cc2)nc(-c2ccc(C(F)F)cc2)n1 [Example 42, 2-[4-(difluoromethyl)phenyl]-N-[(2S)-1-hydroxypropan-2-yl]-6-[4-(trifluoromethoxy)phenyl]pyrimidine-4-carboxamide] |
| – | 0.908 µM | Cc1cc(F)cc(-c2nc(C(=O)NCC(C)(C)O)cc(-c3ccc(Cl)cc3)n2)c1 [Example 60, 6-(4-chlorophenyl)-2-(3-fluoro-5-methylphenyl)-N-(2-hydroxy-2-methylpropyl)pyrimidine-4-carboxamide] |
| – | 0.0136 µM | C[C@@H](CO)NC(=O)c1cc(-c2ccc(Cl)cc2)nc(-c2cccc(Cl)c2)n1 [Example 71, 2-(3-chlorophenyl)-6-(4-chlorophenyl)-N-[(2S)-1-hydroxypropan-2-yl]pyrimidine-4-carboxamide] |
| 0.0485 µM | 0.134 µM | Cc1cc(-c2nc(C(=O)N[C@@H](C)CO)cc(-c3ccc(Cl)cc3)n2)ccc1F [Example 65, 6-(4-chlorophenyl)-2-(4-fluoro-3-methylphenyl)-N-[(2S)-1-hydroxypropan-2-yl]pyrimidine-4-carboxamide] |
| – | 0.406 µM | Cc1cc(-c2nc(C(=O)NCC(C)(C)O)cc(-c3ccc(Cl)cc3)n2)ccc1F [Example 49, 6-(4-chlorophenyl)-2-(4-fluoro-3-methylphenyl)-N-(2-hydroxy-2-methylpropyl)pyrimidine-4-carboxamide] |
| – | 0.026 µM | Cc1cccc(-c2nc(C(=O)NCC(C)(C)O)cc(-c3ccc(Cl)cc3)n2)c1 [Example 48, 6-(4-chlorophenyl)-N-(2-hydroxy-2-methylpropyl)-2-(3-methylphenyl)pyrimidine-4-carboxamide] |
| – | 0.0538 µM | CC(C)(O)CNC(=O)c1cc(-c2ccc(Cl)cc2)nc(-c2ccc(F)c(Cl)c2)n1 [Example 50, 2-(3-chloro-4-fluorophenyl)-6-(4-chlorophenyl)-N-(2-hydroxy-2-methylpropyl)pyrimidine-4-carboxamide] |
| – | 0.017 µM | C[C@@H](CO)NC(=O)c1cc(-c2ccc(Cl)cc2)nc(-c2cc(F)cc(F)c2)n1 [Example 74, 6-(4-chlorophenyl)-2-(3,5-difluorophenyl)-N-[(2S)-1-hydroxypropan-2-yl]pyrimidine-4-carboxamide] |
